Consider ten molecules from ChEMBL document CHEMBL5608222, “Development of 3'-Deoxy-3',4'-didehydro-nucleoside Prodrug Inhibitors of West Nile and Zika Viruses” (ACS Med Chem Lett, 2024).

The structures appear in SMILES notation. The source made the active and inactive calls. The calls are words filed in the database; no cut-off is given here.

The nature of data set [1]: Cytotoxicity against african green monkey Vero cells assessed as decrease in cell viability at 1 mM incubated for 5 days by Alamar blue assay. It is filed as toxicity, cell-based. As to conditions: chlorocebus sabaeus, 120 h, 1000 µM, time 5 day. Background: The colour change of resazurin is a common sign of viable cells or microbes.
Data set [2] relates to Huh-7. In words: Cytotoxicity against human Huh-7 cells assessed as decrease in cell viability at 1 mM incubated for 5 days by Alamar blue assay. It is filed as toxicity, cell-based. The following applies: huh-7, 120 h, 1000 µM, time 5 day.
In data set [3] the test system is Zika virus. In words: Antiviral activity against ZIKV infected in Huh-7 cells assessed as reduction in viral titer at 0.1 to 1 mM preincubated for 24 hrs prior to compound washout followed by viral infection for 1 hr again media washout and compound addition for 3 days by neutral red staining based assay. Type of data set: functional. The following applies: dose 0.1-1 mM.

In data set [4] the test system is Huh-7. In words: Cytotoxicity against human Huh-7 cells at 0.1 to 1 mM incubated for 6 days by neutral red staining based assay. Type of data set: toxicity, cell-based. As to conditions: huh-7, 144 h, 1000 µM, dose 0.1-1 mM, time 6 day.
Data set [5] relates to West Nile virus. In words: Antiviral activity against WNV infected in Huh-7 cells assessed as log reduction in viral titer at 0.1 to 1 mM preincubated for 24 hrs prior to compound washout followed by viral infection for 1 hr again media washout and compound addition for 3 days by neutral red staining based assay. It is filed as functional. The following applies: dose 0.1-1 mM; for Activity: time 96.0 hrs.

Data set [6] is described as follows: Cytotoxicity against african green monkey Vero cells assessed as decrease in cell viability at 0.1 to 1 mM incubated for 5 days by Alamar blue assay. The following applies: chlorocebus sabaeus, 120 h, 1000 µM, dose 0.1-1 mM, time 5 day. It is filed as toxicity, cell-based.
In data set [7] the test system is Huh-7. In words: Cytotoxicity against human Huh-7 cells assessed as decrease in cell viability at 0.1 to 1 mM incubated for 5 days by Alamar blue assay. It is filed as toxicity, cell-based. The following applies: huh-7, 120 h, 1000 µM, dose 0.1-1 mM, time 5 day.
The nature of data set [8]: Cytotoxicity against human Huh-7 cells assessed as cell viability at 1 mM incubated for 6 days by neutral red staining based assay. It is filed as toxicity. The following applies: time 6 day, read-out: Activity.
Data set [9] is described as follows: Cytotoxicity against african green monkey Vero cells assessed as decrease in cell viability at 0.1 to 1 mM incubated for 2 days by Alamar blue assay. It is filed as toxicity, cell-based. As to conditions: chlorocebus sabaeus, 48 h, 1000 µM, dose 0.1-1 mM, time 2 day.
The subject of data set [10] is West Nile virus. In words: Antiviral activity against WNV infected in Huh-7 cells assessed as log reduction in viral titer at 0.1 mM preincubated for 24 hrs prior to compound washout followed by viral infection for 1 hr again media washout and compound addition for 3 days by neutral red staining based assay. Type of data set: functional. The following applies: time 96 hrs.

Data set [11] deals with West Nile virus. In words: Antiviral activity against WNV infected in Huh-7 cells assessed as log reduction in viral titer at 1 mM preincubated for 24 hrs prior to compound washout followed by viral infection for 1 hr again media washout and compound addition for 3 days by neutral red staining based assay. It is filed as functional, organism-based. As to conditions: time 96.0 hrs.

Data set [12] concerns Huh-7. In words: Cytotoxicity against human Huh-7 cells at 1 mM. Type of data set: toxicity, cell-based. The following applies: huh-7, 120 h, 1000 µM, time 5 day.
For data set [13], the system named is Zika virus. In words: Antiviral activity against ZIKV infected in Huh-7 cells assessed as log reduction in viral titer at 1 mM preincubated for 24 hrs prior to compound washout followed by viral infection for 1 hr again media washout and compound addition for 3 days by neutral red staining based assay. It is filed as functional.
In data set [14] the test system is Zika virus. In words: Antiviral activity against ZIKV infected in Huh-7 cells assessed as log reduction in viral titer at 0.1 mM preincubated for 24 hrs prior to compound washout followed by viral infection for 1 hr again media washout and compound addition for 3 days by neutral red staining based assay. As to conditions: for Activity: time 96.0 hrs. Type of data set: functional.

Consider `Cc1cn([C@@H]2OC(CO[P@@](=O)(N[C@@H](C)C(=O)OC(C)C)Oc3ccccc3)=C[C@H]2O)c(=O)[nH]c1=O`, for which the Activity result in data set [1] is listed as “Non-Toxic”; in the data set with Huh-7 [2] it was 50%; with Huh-7 [4], “Non-Toxic”. Further, the result with Zika virus [3] (time 96.0 hrs) and in the data set with West Nile virus [5] was inactive.
With `O=c1ccn([C@@H]2OC(CO)=C[C@H]2O)c(=O)[nH]1`, the Activity result (with Huh-7 [4]; in data set [6]; in the data set with Huh-7 [7]) was “Non-Toxic” each time. For the same molecule, the outcome in the data set on West Nile virus [5] was inactive.
Consider `Nc1ncnc2c1ncn2[C@@H]1OC(CO)=C[C@H]1O`, for which the viability at 144 h, 1000 µM in data set [8] was 70%. In addition, the Activity entry with Huh-7 [4] is recorded as “Toxic”; in [6] it was “Non-Toxic”; in the data set with Huh-7 [7], < 25%; in data set [9], “Toxic”; with Huh-7 [12], “Toxic”. In addition, the “log(activity)” value with West Nile virus [10] is recorded as 1.5. Besides, the result with West Nile virus [11] was Active.
Consider `Nc1nc2c(ncn2[C@@H]2OC(CO)=C[C@H]2O)c(=O)[nH]1`, for which the Activity result (with Huh-7 [4]; in [6]; in the data set on Huh-7 [7]) was “Non-Toxic” in each case. Moreover, the result in the data set on West Nile virus [5] was inactive.
For the molecule `CC(C)OC(=O)[C@H](C)N[P@](=O)(OCC1=C[C@@H](O)[C@H](n2ccc(=O)[nH]c2=O)O1)Oc1ccccc1`, the Activity entry in data set [1] was “Non-Toxic”; in the data set with Huh-7 [2], 70%; in the data set with Huh-7 [4] it was “Non-Toxic”. Further, the result in the data set with Zika virus [13] (time 96.0 hrs) and with West Nile virus [5] was inactive. Further, in the data set on Zika virus [14] (time 96 hrs), the “log(activity)” value was 2.5.
For `O=c1[nH]cnc2c1ncn2[C@@H]1OC(CO)=C[C@H]1O`, the Activity result (in the data set on Huh-7 [4]; in [6]; in the data set with Huh-7 [7]) was “Non-Toxic” each time. Besides, the result in the data set on West Nile virus [5] was inactive.
Turning to `CC(C)OC(=O)[C@H](C)N[P@](=O)(OCC1=C[C@@H](O)[C@H](n2cnc3c(=O)[nH]c(N)nc32)O1)Oc1ccccc1`, the “log(activity)” value in the data set with Zika virus [13] (time 96 hrs) is listed as 3.8. The Activity entry (with Huh-7 [4]; in data set [6]; in the data set with Huh-7 [7]) was “Non-Toxic” in each case. The result with Zika virus [14] was Active. In the data set on West Nile virus [5], the result was inactive.
Turning to `CC(C)OC(=O)[C@H](C)N[P@](=O)(OCC1=C[C@@H](O)[C@H](n2cnc3c(=O)[nH]cnc32)O1)Oc1ccccc1`, the outcome with Zika virus [3] (time 96.0 hrs) and in the data set on West Nile virus [5] was inactive. Moreover, the Activity result (in the data set with Huh-7 [4]; in data set [6]; with Huh-7 [7]) was “Non-Toxic” in each case.
Take `CC(C)OC(=O)[C@H](C)N[P@](=O)(OCC1=C[C@@H](O)[C@H](n2cnc3c(N)ncnc32)O1)Oc1ccccc1`: the Activity in [1] is 80%; in the data set on Huh-7 [2] it was 25%; in the data set on Zika virus [3] (time 96 hrs) it was 100%; in the data set with Huh-7 [4], “Toxic”; with Huh-7 [12] it was “Toxic”. Besides, the viability at 144 h, 1000 µM in data set [8] is 70%. Besides, the result in the data set with Zika virus [14] and in the data set with West Nile virus [11] was Active. Moreover, the figures for the “log(activity)” value with West Nile virus [10] and with West Nile virus [5] (time 96 hrs) were 2.5 and 4.8, respectively.
`Cc1cn([C@@H]2OC(CO)=C[C@H]2O)c(=O)[nH]c1=O`: the Activity result (in the data set on Huh-7 [4]; in data set [6]; with Huh-7 [7]) was “Non-Toxic” throughout. Also, in the data set on West Nile virus [5], the result was inactive.
